Experimental data published in patent publication US20240174679A1, “HETEROAROYL AMIDES AS LRRK2 INHIBITORS, PHARMACEUTICAL COMPOSITIONS, AND USES THEREOF” (MERCK SHARP & DOHME LLC, priority 2021, published 2024).

Biological target: GST tagged truncated human mutant G2019S LRRK2 (Homo sapiens (Human), UniProt Q5S007, G2019S)
Assay: LRRK2 Km ATP LanthaScreen Assay
Type: biochemical
Conditions: 134 μM ATP (Km ATP), LRRKtide substrate, negative log of mean IC50 (molar)
In short: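 Truncated GST-tagged G2019S LRRK2 (1.25 nM enzyme solution) was preincubated with compound for 15 min at rt, then reacted for 90 min with fluorescein-LRRKtide and 134 μM ATP (Km) in Tris pH 8.5/MgCl2 buffer. After an EDTA stop, TR-FRET used a Tb anti-pERM antibody (520/495 nm ratio). IC50 came from a 4-parameter fit and is reported as pIC50, mean of several runs.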

Chain of GST tagged truncated human mutant G2019S LRRK2 (Q5S007 970-2527 G2019S): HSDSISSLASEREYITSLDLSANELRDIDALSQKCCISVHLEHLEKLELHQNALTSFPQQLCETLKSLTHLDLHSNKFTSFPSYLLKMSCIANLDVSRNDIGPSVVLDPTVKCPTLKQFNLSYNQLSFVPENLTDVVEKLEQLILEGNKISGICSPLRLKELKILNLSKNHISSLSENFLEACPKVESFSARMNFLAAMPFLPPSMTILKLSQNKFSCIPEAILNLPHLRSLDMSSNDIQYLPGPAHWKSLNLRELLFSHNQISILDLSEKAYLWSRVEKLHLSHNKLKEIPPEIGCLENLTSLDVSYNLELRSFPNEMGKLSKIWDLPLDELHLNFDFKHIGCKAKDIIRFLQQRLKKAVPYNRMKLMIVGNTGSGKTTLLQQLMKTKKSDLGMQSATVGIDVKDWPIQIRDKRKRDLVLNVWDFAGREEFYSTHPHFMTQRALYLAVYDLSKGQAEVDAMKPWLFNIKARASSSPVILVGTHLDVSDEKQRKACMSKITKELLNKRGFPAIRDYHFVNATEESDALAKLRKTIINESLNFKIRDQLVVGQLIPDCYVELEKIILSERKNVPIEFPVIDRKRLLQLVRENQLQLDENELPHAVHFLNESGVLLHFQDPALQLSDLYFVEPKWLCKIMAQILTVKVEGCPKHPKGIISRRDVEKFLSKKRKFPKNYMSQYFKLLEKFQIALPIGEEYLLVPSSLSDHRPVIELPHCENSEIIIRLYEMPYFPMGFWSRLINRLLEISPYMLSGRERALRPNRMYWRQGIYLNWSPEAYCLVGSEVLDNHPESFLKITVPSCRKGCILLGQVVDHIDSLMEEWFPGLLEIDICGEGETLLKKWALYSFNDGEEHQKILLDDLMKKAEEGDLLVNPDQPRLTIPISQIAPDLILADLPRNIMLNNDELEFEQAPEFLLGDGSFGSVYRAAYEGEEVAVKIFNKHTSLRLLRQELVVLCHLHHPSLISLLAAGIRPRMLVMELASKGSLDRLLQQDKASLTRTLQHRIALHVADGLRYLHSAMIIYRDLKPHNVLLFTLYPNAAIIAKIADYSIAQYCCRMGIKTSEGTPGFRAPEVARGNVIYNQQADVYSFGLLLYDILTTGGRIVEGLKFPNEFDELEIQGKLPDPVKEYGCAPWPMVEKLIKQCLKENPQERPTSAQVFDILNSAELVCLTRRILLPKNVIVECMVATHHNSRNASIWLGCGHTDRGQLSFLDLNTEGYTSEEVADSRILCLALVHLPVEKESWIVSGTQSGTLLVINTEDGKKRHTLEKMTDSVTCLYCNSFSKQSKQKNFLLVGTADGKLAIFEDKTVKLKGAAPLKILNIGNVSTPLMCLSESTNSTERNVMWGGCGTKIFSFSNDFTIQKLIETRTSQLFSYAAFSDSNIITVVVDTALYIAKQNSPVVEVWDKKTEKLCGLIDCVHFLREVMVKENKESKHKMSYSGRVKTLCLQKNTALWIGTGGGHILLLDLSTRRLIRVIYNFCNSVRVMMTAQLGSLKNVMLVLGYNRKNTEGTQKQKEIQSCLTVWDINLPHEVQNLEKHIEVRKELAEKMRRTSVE

First: O=C(Nc1cn(CC2CCCO2)nc1C(F)F)c1csc(-c2cn[nH]c2)n1 (centres unmarked) [Example 7-12, N-[3-(difluoromethyl)-1-(tetrahydrofuran-2-ylmethyl)-1H-pyrazol-4-yl]-2-(1H-pyrazol-4-yl)-1,3-thiazole-4-carboxamide]
Second: O=C(Nc1cn(CC2CC2)nc1C(F)F)c1csc(-c2cn[nH]c2)n1 [Example 7-33, N-[1-(cyclopropylmethyl)-3-(difluoromethyl)-1H-pyrazol-4-yl]-2-(1H-pyrazol-4-yl)-1,3-thiazole-4-carboxamide]
The “LRRK2 pIC50” value of the first is lower: 7.68 for the first, 8.13 for the second.

First: O=C(Nc1cnn(CC2CCCO2)c1)c1csc(-c2cn[nH]c2)n1 (centres unmarked) [Example 7-13, 2-(1H-pyrazol-4-yl)-N-[1-(tetrahydrofuran-2-ylmethyl)-1H-pyrazol-4-yl]-1,3-thiazole-4-carboxamide]
Second: O=C(Nc1cnn(CC2CC2)c1)c1csc(-c2cn[nH]c2)n1 [Example 7-38, N-[1-(cyclopropylmethyl)-1H-pyrazol-4-yl]-2-(1H-pyrazol-4-yl)-1,3-thiazole-4-carboxamide]
The “LRRK2 pIC50” value of the first is lower: 6.84 for the first, 8.02 for the second.

`COc1nn(CC2CC2)cc1NC(=O)c1csc(-c2cn[nH]c2)n1` [Example 7-14, N-[1-(cyclopropylmethyl)-3-methoxy-1H-pyrazol-4-yl]-2-(1H-pyrazol-4-yl)-1,3-thiazole-4-carboxamide] and `COc1nn(CC2CCC2)cc1NC(=O)c1csc(-c2cn[nH]c2)n1` [Example 7-19, N-[1-(cyclobutylmethyl)-3-methoxy-1H-pyrazol-4-yl]-2-(1H-pyrazol-4-yl)-1,3-thiazole-4-carboxamide] are within 0.2 log units of each other in “LRRK2 pIC50” value: 7.92 for the first, 7.80 for the second.

Going from `O=C(Nc1cnn(CCN2CCNCC2)c1)c1csc(-c2cn[nH]c2)n1` [Example 7-15, N-{1-[2-(piperazin-1-yl)ethyl]-1H-pyrazol-4-yl}-2-(1H-pyrazol-4-yl)-1,3-thiazole-4-carboxamide] to `O=C(Nc1cnn(CCC2CCNCC2)c1)c1csc(-c2cn[nH]c2)n1` [Example 7-32, N-{1-[2-(piperidin-4-yl)ethyl]-1H-pyrazol-4-yl}-2-(1H-pyrazol-4-yl)-1,3-thiazole-4-carboxamide], the “LRRK2 pIC50” value rises from 6.36 to 7.38.

Compared with `COc1nn(CC2CCOCC2)cc1NC(=O)c1csc(-c2cn[nH]c2)n1` [Example 7-16, N-[3-methoxy-1-(tetrahydro-2H-pyran-4-ylmethyl)-1H-pyrazol-4-yl]-2-(1H-pyrazol-4-yl)-1,3-thiazole-4-carboxamide], `COc1nn(CC2CC2(F)F)cc1NC(=O)c1csc(-c2cn[nH]c2)n1` (centres unmarked) [Example 7-39, N-{1-[(2,2-difluorocyclopropyl)methyl]-3-methoxy-1H-pyrazol-4-yl}-2-(1H-pyrazol-4-yl)-1,3-thiazole-4-carboxamide] is higher in “LRRK2 pIC50” value: 7.25 for the first, 7.74 for the second.

First: O=C(Nc1cnn(Cc2ccc(F)cc2)c1)c1csc(-c2cn[nH]c2)n1 [Example 7-17, N-[1-(4-fluorobenzyl)-1H-pyrazol-4-yl]-2-(1H-pyrazol-4-yl)-1,3-thiazole-4-carboxamide]
Second: O=C(Nc1cnn(Cc2ccncc2)c1)c1csc(-c2cn[nH]c2)n1 [Example 7-24, 2-(1H-pyrazol-4-yl)-N-[1-(pyridin-4-ylmethyl)-1H-pyrazol-4-yl]-1,3-thiazole-4-carboxamide]
The “LRRK2 pIC50” value of the first is higher: 7.76 for the first, 7.30 for the second.

First: CC(C)n1cc(NC(=O)c2csc(-c3cn[nH]c3)n2)c(C(F)F)n1 [Example 7-18, N-[3-(difluoromethyl)-1-(1-methylethyl)-1H-pyrazol-4-yl]-2-(1H-pyrazol-4-yl)-1,3-thiazole-4-carboxamide]
Second: CC(C#N)n1cc(NC(=O)c2csc(-c3cn[nH]c3)n2)c(C(F)F)n1 (centres unmarked) [Example 7-31, N-[1-(1-cyanoethyl)-3-(difluoromethyl)-1H-pyrazol-4-yl]-2-(1H-pyrazol-4-yl)-1,3-thiazole-4-carboxamide]
The “LRRK2 pIC50” value of the first is higher: 7.72 for the first, 7.40 for the second.

Going from `COc1nn(CC(F)F)cc1NC(=O)c1csc(-c2cn[nH]c2)n1` [Example 7-20, N-[1-(2,2-difluoroethyl)-3-methoxy-1H-pyrazol-4-yl]-2-(1H-pyrazol-4-yl)-1,3-thiazole-4-carboxamide] to `COCCn1cc(NC(=O)c2csc(-c3cn[nH]c3)n2)c(OC)n1` [Example 7-21, N-[3-methoxy-1-(2-methoxyethyl)-1H-pyrazol-4-yl]-2-(1H-pyrazol-4-yl)-1,3-thiazole-4-carboxamide], the “LRRK2 pIC50” value falls from 7.58 to 6.57.

Going from `COCCn1cc(NC(=O)c2csc(-c3cn[nH]c3)n2)cn1` [Example 7-22, N-[1-(2-methoxyethyl)-1H-pyrazol-4-yl]-2-(1H-pyrazol-4-yl)-1,3-thiazole-4-carboxamide] to `CC(C)Cn1cc(NC(=O)c2csc(-c3cn[nH]c3)n2)cn1` [Example 7-41, N-[1-(2-methylpropyl)-1H-pyrazol-4-yl]-2-(1H-pyrazol-4-yl)-1,3-thiazole-4-carboxamide], the “LRRK2 pIC50” value rises from 7.00 to 7.46.

`CC(C)Cn1cc(NC(=O)c2csc(-c3cn[nH]c3)n2)c(C(F)F)n1` [Example 7-23, N-[3-(difluoromethyl)-1-(2-methylpropyl)-1H-pyrazol-4-yl]-2-(1H-pyrazol-4-yl)-1,3-thiazole-4-carboxamide] and `N#CCn1cc(NC(=O)c2csc(-c3cn[nH]c3)n2)c(C(F)F)n1` [Example 7-27, N-[1-(cyanomethyl)-3-(difluoromethyl)-1H-pyrazol-4-yl]-2-(1H-pyrazol-4-yl)-1,3-thiazole-4-carboxamide] are within 0.2 log units of each other in “LRRK2 pIC50” value: 7.59 for the first, 7.50 for the second.

Compared with `COc1nn(CC2(C#N)CC2)cc1NC(=O)c1csc(-c2cn[nH]c2)n1` [Example 7-25, N-{1-[(1-cyanocyclopropyl)methyl]-3-methoxy-1H-pyrazol-4-yl}-2-(1H-pyrazol-4-yl)-1,3-thiazole-4-carboxamide], `N#CC1(Cn2cc(NC(=O)c3csc(-c4cn[nH]c4)n3)cn2)CCNCC1` [Example 7-28, N-{1-[(4-cyanopiperidin-4-yl)methyl]-1H-pyrazol-4-yl}-2-(1H-pyrazol-4-yl)-1,3-thiazole-4-carboxamide] is lower in “LRRK2 pIC50” value: 7.70 for the first, 6.71 for the second.

Going from `O=C(Nc1cnn(C[C@H]2CCNC2)c1)c1csc(-c2cn[nH]c2)n1` [Example 7-26, 2-(1H-pyrazol-4-yl)-N-(1-{[(3S)-pyrrolidin-3-yl]methyl}-1H-pyrazol-4-yl)-1,3-thiazole-4-carboxamide] to `O=C(Nc1cnn(C[C@@H]2CCNC2)c1)c1csc(-c2cn[nH]c2)n1` [Example 7-30, 2-(1H-pyrazol-4-yl)-N-(1-{[(3R)-pyrrolidin-3-yl]methyl}-1H-pyrazol-4-yl)-1,3-thiazole-4-carboxamide], the “LRRK2 pIC50” value falls from 6.84 to 6.25.

First: O=C(Nc1cn(CC2CC2(F)F)nc1C(F)F)c1csc(-c2cn[nH]c2)n1 (centres unmarked) [Example 7-29, N-{1-[(2,2-difluorocyclopropyl)methyl]-3-(difluoromethyl)-1H-pyrazol-4-yl}-2-(1H-pyrazol-4-yl)-1,3-thiazole-4-carboxamide]
Second: CC1(Cn2cc(NC(=O)c3csc(-c4cn[nH]c4)n3)c(C(F)F)n2)COC1 [Example 7-42, N-{3-(difluoromethyl)-1-[(3-methyloxetan-3-yl)methyl]-1H-pyrazol-4-yl}-2-(1H-pyrazol-4-yl)-1,3-thiazole-4-carboxamide]
The “LRRK2 pIC50” value of the first is higher: 7.78 for the first, 6.51 for the second.

First: CN1CCN(CCCn2cc(NC(=O)c3csc(-c4cn[nH]c4)n3)cn2)CC1 [Example 7-34, N-{1-[3-(4-methylpiperazin-1-yl)propyl]-1H-pyrazol-4-yl}-2-(1H-pyrazol-4-yl)-1,3-thiazole-4-carboxamide]
Second: N[C@H]1CC[C@](F)(Cn2cc(NC(=O)c3csc(-c4cn[nH]c4)n3)cn2)CC1 [Example 7-35, N-{1-[(cis-4-amino-1-fluorocyclohexyl)methyl]-1H-pyrazol-4-yl}-2-(1H-pyrazol-4-yl)-1,3-thiazole-4-carboxamide]
The “LRRK2 pIC50” value of the first is lower: 5.95 for the first, 6.24 for the second.

`NCC1CCC(F)(Cn2cc(NC(=O)c3csc(-c4cn[nH]c4)n3)cn2)CC1` (centres unmarked) [Example 7-36, N-(1-{[4-(aminomethyl)-1-fluorocyclohexyl]methyl}-1H-pyrazol-4-yl)-2-(1H-pyrazol-4-yl)-1,3-thiazole-4-carboxamide] and `N#CC1CCC(Cn2cc(NC(=O)c3csc(-c4cn[nH]c4)n3)cn2)CC1` (centres unmarked) [Example 7-37, N-{1-[(4-cyanocyclohexyl)methyl]-1H-pyrazol-4-yl}-2-(1H-pyrazol-4-yl)-1,3-thiazole-4-carboxamide] are within 0.2 log units of each other in “LRRK2 pIC50” value: 7.65 for the first, 7.72 for the second.

First: CCOCCn1cc(NC(=O)c2csc(-c3cn[nH]c3)n2)c(C(F)F)n1 [Example 7-40, N-[3-(difluoromethyl)-1-(2-ethoxyethyl)-1H-pyrazol-4-yl]-2-(1H-pyrazol-4-yl)-1,3-thiazole-4-carboxamide]
Second: Cc1cc(-n2cc(NC(=O)c3csc(-c4cn[nH]c4)n3)cn2)ccn1 [Example 8-1, N-(1-(2-Methylpyridin-4-yl)-1H-pyrazol-4-yl)-2-(1H-pyrazol-4-yl)thiazole-4-carboxamide]
The “LRRK2 pIC50” value of the first is lower: 6.97 for the first, 7.90 for the second.

Going from `O=C(Nc1cnn(CC2C3CCC2CNC3)c1)c1csc(-c2cn[nH]c2)n1` (centres unmarked) [Example 7-43, N-{1-[(3-azabicyclo[3.2.1]octan-8-yl)methyl]-1H-pyrazol-4-yl}-2-(1H-pyrazol-4-yl)-1,3-thiazole-4-carboxamide] to `Cc1cnccc1-n1cc(NC(=O)c2csc(-c3cn[nH]c3)n2)cn1` [Example 8-2, N-[1-(3-methylpyridin-4-yl)-1H-pyrazol-4-yl]-2-(1H-pyrazol-4-yl)-1,3-thiazole-4-carboxamide], the “LRRK2 pIC50” value rises from 6.87 to 7.74.

With `CC(C)c1cc(-n2cc(NC(=O)c3csc(-c4cn[nH]c4)n3)cn2)ccn1` [Example 8-3, N-{1-[2-(1-methylethyl)pyridin-4-yl]-1H-pyrazol-4-yl}-2-(1H-pyrazol-4-yl)-1,3-thiazole-4-carboxamide] the “LRRK2 pIC50” value was 7.89.
